Results as given in patent publication US10717746B2, “Chemical compounds” (ASTRAZENECA AB, priority 2015, dated 2020).
One block for each molecule: values may come before it.

Tests used:
CDK9/CycT1 [1] = target: T1, CDK9/CycT1 (Homo sapiens (Human), UniProt P50750); experiment: CDK9 kinase assay, ATP concentration at Km (mobility shift, Caliper LC3000); assay type: biochemical; details: 6 μM ATP, 3 nM CDK9/CycT1; read-out: CDK9 ATP conc. at Km (IC50)
Method in brief: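 […], compound sat 15 min with enzyme mix: 3 nM CDK9/CycT1, 1.5 µM FITC-GSRTPMY substrate, 6 µM ATP, pH 7.2 HEPES buffer.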

CDK9/CycT1 [2] = target: T1, CDK9/CycT1; experiment: CDK9 kinase assay, high ATP concentration (5 mM ATP); assay type: biochemical; details: 1.5 nM CDK9, read-out: CDK9 High ATP conc. (IC50)
Method in brief: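 Caliper mobility-shift read-out of phosphorylated vs unphosphorylated FITC-peptide (1.5 μM), giving percent turnover. Final 1.5 nM CDK9/CycT1 and 5 mM ATP in 50 mM HEPES pH 7.2, 1 mM DTT, 10 mM MgCl2; compound preincubated 15 min, reaction 90 min at 25° C, stopped with EDTA.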

[3] = tested on: phosphorylation of RNA Polymerase II (RNAPII) at the Ser2 site in MCF7 cells; experiment: MCF7 pSer2 RNAPII MOA assay (immunofluorescence); assay type: cell-based; details: Homo sapiens, MCF7, 6 h, 6-hr treatment, read-out: p-Ser 2 RNAPII (IC50)
Method in brief: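 Phospho-Ser2 RNAPII was measured by immunofluorescence (Alexa Fluor 488, DAPI counterstain) with plate cytometer read-out. Before staining, cells were fixed with paraformaldehyde and permeabilized with Triton. Exposure was 6 h at 37° C. to CDK9 inhibitors over 7 points (3 μM to 0.004 μM) in MCF7 cells seeded at 2500/well the previous day.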

MV411 cells = experiment: MV411 caspase activity assay (Caspase-Glo 3/7); assay type: cell-based; details: Homo sapiens, MV4-11, 6 h, 6-hr treatment, caspase 3/7 induction
Method in brief: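 MV411 AML cells (3000/well) were plated overnight, then treated with compound for 6 h at 37 °C. Caspase-3/7 activity was read as luminescence after 30 min with Caspase-Glo 3/7 reagent at room temperature.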

T1 sequence (P50750 whole entry): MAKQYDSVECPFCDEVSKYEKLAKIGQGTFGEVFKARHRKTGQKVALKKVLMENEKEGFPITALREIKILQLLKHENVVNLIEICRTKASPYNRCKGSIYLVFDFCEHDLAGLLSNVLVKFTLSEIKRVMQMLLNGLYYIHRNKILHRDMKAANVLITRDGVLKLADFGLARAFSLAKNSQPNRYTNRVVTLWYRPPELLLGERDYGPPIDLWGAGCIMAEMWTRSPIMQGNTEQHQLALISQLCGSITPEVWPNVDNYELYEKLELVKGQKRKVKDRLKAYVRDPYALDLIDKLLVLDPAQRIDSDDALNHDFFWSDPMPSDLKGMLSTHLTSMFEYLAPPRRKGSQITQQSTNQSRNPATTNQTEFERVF
T1 sequence (O60563 whole entry partner): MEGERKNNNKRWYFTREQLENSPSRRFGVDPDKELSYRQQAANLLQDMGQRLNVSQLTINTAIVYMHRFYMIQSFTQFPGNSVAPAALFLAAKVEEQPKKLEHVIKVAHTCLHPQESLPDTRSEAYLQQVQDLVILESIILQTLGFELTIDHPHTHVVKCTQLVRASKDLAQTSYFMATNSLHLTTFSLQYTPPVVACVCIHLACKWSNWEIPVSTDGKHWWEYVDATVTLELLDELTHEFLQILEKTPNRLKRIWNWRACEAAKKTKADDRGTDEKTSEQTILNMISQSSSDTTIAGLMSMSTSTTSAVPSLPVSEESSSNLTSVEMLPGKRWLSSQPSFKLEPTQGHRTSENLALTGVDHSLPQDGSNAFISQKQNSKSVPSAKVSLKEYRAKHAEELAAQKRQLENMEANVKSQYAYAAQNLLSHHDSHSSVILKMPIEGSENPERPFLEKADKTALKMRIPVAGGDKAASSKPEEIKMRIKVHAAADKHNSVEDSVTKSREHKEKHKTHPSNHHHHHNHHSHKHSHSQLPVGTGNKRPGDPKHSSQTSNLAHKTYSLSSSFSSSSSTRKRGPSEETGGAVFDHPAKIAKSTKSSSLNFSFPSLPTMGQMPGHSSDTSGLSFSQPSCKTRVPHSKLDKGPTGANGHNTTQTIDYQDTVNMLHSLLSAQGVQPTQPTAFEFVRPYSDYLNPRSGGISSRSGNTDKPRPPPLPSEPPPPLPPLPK

Compound: CC1(C)CCn2ncc(-c3cc(NC(=O)[C@H]4CCC[C@@H](N)C4)ncc3F)c2C1 [Example 51a, (1S,3R)-3-amino-N-(4-(5,5-dimethyl-4,5,6,7-tetrahydropyrazolo[1,5-a]pyridin-3-yl)-5-fluoropyridin-2-yl)cyclohexanecarboxamide]
- IC50 (CDK9/CycT1 [1]): < 3 nM
- IC50 (CDK9/CycT1 [2]): 148 nM
- IC50 [3]: 292 nM
- IC50 (MV411 cells): 228 nM

Compound: CC(=O)N[C@@H]1CCC[C@H](C(=O)Nc2cc(-c3cnn4c3CCCC4)ccn2)C1 [Example 3, (1S,3R)-3-acetamido-N-(4-(4,5,6,7-tetrahydropyrazolo[1,5-a]pyridin-3-yl)pyridin-2-yl)cyclohexanecarboxamide]
- IC50 (CDK9/CycT1 [1]): < 3 nM
- IC50 (CDK9/CycT1 [2]): 210 nM
- IC50 [3]: 520 nM
- IC50 (MV411 cells): 440 nM

Compound: CC(=O)N[C@@H]1CCC[C@H](C(=O)Nc2cc(-c3cnc4n3CC(C)(C)C4)c(F)cn2)C1 [Example 50, (1S,3R)-3-acetamido-N-(4-(6,6-dimethyl-6,7-dihydro-5H-pyrrolo[1,2-a]imidazol-3-yl)-5-fluoropyridin-2-yl)cyclohexanecarboxamide]
- IC50 (CDK9/CycT1 [1]): < 3 nM
- IC50 (CDK9/CycT1 [2]): 5 nM
- IC50 [3]: 19 nM
- IC50 (MV411 cells): 26 nM

Compound: O=C(Nc1cc(-c2cnn3c2CCCC3)c(Cl)cn1)[C@H]1CCC[C@@H](NC(=O)C2(O)CC2)C1 [Example 32, (1S,3R)—N-(5-chloro-4-(4,5,6,7-tetrahydropyrazolo[1,5-a]pyridin-3-yl)pyridin-2-yl)-3-(1-hydroxycyclopropanecarboxamido)cyclohexanecarboxamide]
- IC50 (CDK9/CycT1 [1]): < 3 nM
- IC50 (CDK9/CycT1 [2]): 17 nM
- IC50 [3]: 55 nM
- IC50 (MV411 cells): 136 nM

Second part, the molecule after the results:

- IC50 (CDK9/CycT1 [1]): < 3 nM
- IC50 (CDK9/CycT1 [2]): < 4 nM
- IC50 [3]: 9 nM
- IC50 (MV411 cells): 12 nM
Compound: CC1(C)Cc2c(-c3cc(NC(=O)[C@H]4CCC[C@@H](NC(=O)[C@H]5CCCO5)C4)ncc3Cl)cnn2C1 [Example 46, (R)—N-((1R,3S)-3-((5-chloro-4-(5,5-dimethyl-5,6-dihydro-4H-pyrrolo[1,2-b]pyrazol-3-yl)pyridin-2-yl)carbamoyl)cyclohexyl)tetrahydrofuran-2-carboxamide]

- IC50 (CDK9/CycT1 [1]): 3 nM
- IC50 (CDK9/CycT1 [2]): 170 nM
- IC50 [3]: 220 nM
- IC50 (MV411 cells): 280 nM
Compound: O=C(Nc1cc(-c2cnn3c2CCCC3)c(Cl)cn1)[C@H]1C[C@@H](O)C1 [Example 4, Cis-N-(5-chloro-4-(4,5,6,7-tetrahydropyrazolo[1,5-a]pyridin-3-yl)pyridin-2-yl)-3-hydroxycyclobutanecarboxamide]

- IC50 (CDK9/CycT1 [1]): < 4 nM
- IC50 (CDK9/CycT1 [2]): 270 nM
- IC50 [3]: 260 nM
- IC50 (MV411 cells): 160 nM
Compound: O=C(Nc1cc(-c2cnn3c2CCCC3)c(Cl)cn1)[C@@H]1CCCNC1 [Example 5, (R)—N-(5-chloro-4-(4,5,6,7-tetrahydropyrazolo[1,5-a]pyridin-3-yl)pyridin-2-yl)piperidine-3-carboxamide]
